This is an account of results in publication PMC3412845, “Waking Action of Ursodeoxycholic Acid (UDCA) Involves Histamine and GABAA Receptor Block” (PLoS ONE, 2012).

Details of data set [1]: method as in PMID 22356133. The following applies: cited from earlier work.
The subject of the next data set is HDC+/+ mice. Kind of data set: Polygraphic (EEG/EMG) sleep-wake recording in wild type mice. It counts as in vivo, mouse. As for the experimental part:
(§1) Animal experiments were conducted according to the Animal Protection Law of the Federal Republic of Germany and the local guidelines (Bezirksregierung Duesseldorf) and were in accordance with the European Communities Council directive regarding care and use of animals for experimental procedures (86/609/EEC). The general protocol of sleep-wake recording and experiment in the mouse was approved by the ethic committee of Claude Bernard University of Lyon. All efforts were made to minimize the number of animals and their suffering. At the age of 12 weeks and with a body weight of 30±2 g HDC wild type and knockout mice used for EEG and sleep-wake studies were chronically implanted, under deep gas anesthesia using isoflurane (2%, 200 ml/min) and a TEM anesthesia system (Bordeaux, France), with six cortical electrodes (gold-plated tinned copper wire, Ø = 0.4 mm, Filotex, Draveil, France) and three neck muscle electrodes (fluorocarbon-coated gold-plated stainless steel wire, Ø = 0.03 mm, Cooner Wire Chatworth, CA, U.S.A.) to record the electroencephalogram (EEG) and electromyogram (EMG) and to monitor the sleep-wake cycle. Finally, the electrode assembly was anchored and fixed to the skull with Super-Bond (Sun Medical Co., Shiga, Japan) and dental cement. This implantation allows stable and long-lasting polygraphic recordings.
(§2) After surgery, the animals were housed individually in barrels placed in an insulated sound-proof recording room maintained at an ambient temperature of 22±1°C and on a 12 h light/dark cycle (lights-on at 7 a.m.), standard food and water being available ad libitum. After a 7-days recovery period, mice were habituated to the recording cable for 7 days before polygraphic recordings were started. Cortical EEG (contralateral frontoparietal leads) and EMG signals were amplified, digitized with a resolution of 256 and 128 Hz, respectively, and computed on a CED 1401 Plus (Cambridge, UK). Using a Spike2 script and with the assistance of spectral analysis using the fast Fourier transform, polygraphic records were visually scored by 30-sec epochs for wakefulness (W), slow wave sleep (SWS), and paradoxical sleep (PS) according to previously described criteria validated for mice.
(§3) Animals were subjected to 12 h sleep-wake recordings following administration of URSOFALK (clinically used UDCA, 32 mg/kg) through the oral route (per os) at 10 a.m. (during the sleepy period) or at 7 p.m. (during the active period). Each animal received twice single dose of UDCA and twice equal volume of vehicle. There was an interval of 7 days between any two administrations. UDCA or vehicle was applied at random. The waking, slow wave sleep or paradoxical sleep amounts were compared between vehicle and UCDA within the same animal, the differences being averaged within the groups. […]

Data set [2] has as its target T1, α1β2γ2L GABAA receptors (WT) (UniProt P22723+P62813+P63138).
T1 construct: expressed in transfected cells; host or cells: HEK293
Description: Patch-clamp of recombinant wild-type α1β2γ2L GABAAR in HEK293 cells. It counts as cell-based, rat α1, rat β2, mouse γ2L. How it is done: HEK 293 cells were obtained from DSM (Deutsche Sammlung von Mikroorganismen und Zellkulturen GmbH, DSM, Braunschweig). They were grown and maintained according to published standard protocols. Briefly, cells were grown in minimal essential medium supplemented with 10% fetal bovine serum, 100units/ml penicillin and streptomycin and 2 mM L-glutamine and splitted once per week. Semiconfluent cells were transfected on the third day after splitting with the help of Lipofectamine 2000 (Invitrogen), recordings were done 48–72 hrs after transfection.
The GABAAR subunit cDNAs, generously donated by G.Gisselmann (rat α1, mouse γ2L, rat β1, β2 and human β3 [26]) and J.H. Steinbach (rat α1V256S [28] and rat α1Q241L [44]), were subcloned into pcDNA3 (Invitrogen, Karlsruhe, Germany) and applied in a ratio 1∶1∶1 for the α1βxγ2L receptor and 1∶1 for α1β3 or β3γ2L receptors. […] For each receptor type patch clamp recordings were obtained from at least three separate transfections. Whole-cell patch clamp recordings were done in a similar extracellular solution as for the native cells (see above) except that the concentration of MgCl2 was reduced to 1.2 mM. Intracellular electrodes contained 140 mM CsCl (instead of KCl), pH adjusted with CsOH. The voltage was held at −40 mV.

The test system of the next data set is HDC−/− mice. Kind of data set: Polygraphic (EEG/EMG) sleep-wake recording in histamine-deficient mice. It counts as in vivo, mouse. As for the experimental part:
as §1, §2, §3

Setting [3] is: UDCA 32 mg/kg per os at 7 p.m., vs vehicle.

Structures are written as SMILES. “And” between values parts separate entries of the source, which are not always exact repeats. Equal entries are not always repeated.

T1 sequence (P62813 28-455): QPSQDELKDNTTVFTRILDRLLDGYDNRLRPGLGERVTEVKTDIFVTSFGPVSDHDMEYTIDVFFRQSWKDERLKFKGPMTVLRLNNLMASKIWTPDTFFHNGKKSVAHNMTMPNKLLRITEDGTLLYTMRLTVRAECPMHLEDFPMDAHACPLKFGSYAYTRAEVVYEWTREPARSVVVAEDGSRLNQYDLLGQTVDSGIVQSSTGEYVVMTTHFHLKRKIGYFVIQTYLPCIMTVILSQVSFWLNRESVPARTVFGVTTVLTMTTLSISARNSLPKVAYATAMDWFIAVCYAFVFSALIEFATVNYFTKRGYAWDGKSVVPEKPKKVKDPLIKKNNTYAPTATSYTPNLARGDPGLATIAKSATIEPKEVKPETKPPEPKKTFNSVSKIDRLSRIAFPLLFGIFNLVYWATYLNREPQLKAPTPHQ
T1 sequence (P63138 25-474 limits assumed): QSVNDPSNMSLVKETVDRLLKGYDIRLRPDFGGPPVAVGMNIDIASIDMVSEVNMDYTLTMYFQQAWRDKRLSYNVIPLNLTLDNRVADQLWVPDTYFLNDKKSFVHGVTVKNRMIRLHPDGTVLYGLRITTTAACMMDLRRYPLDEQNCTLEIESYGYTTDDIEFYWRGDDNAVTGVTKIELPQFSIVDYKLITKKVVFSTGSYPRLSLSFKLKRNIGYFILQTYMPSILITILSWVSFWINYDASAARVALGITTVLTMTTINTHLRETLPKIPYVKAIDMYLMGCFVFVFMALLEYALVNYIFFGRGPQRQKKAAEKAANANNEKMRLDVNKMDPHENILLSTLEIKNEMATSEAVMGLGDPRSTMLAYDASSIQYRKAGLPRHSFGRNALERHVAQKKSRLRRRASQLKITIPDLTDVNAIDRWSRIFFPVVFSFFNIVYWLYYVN
T1 sequence (P22723 39-474): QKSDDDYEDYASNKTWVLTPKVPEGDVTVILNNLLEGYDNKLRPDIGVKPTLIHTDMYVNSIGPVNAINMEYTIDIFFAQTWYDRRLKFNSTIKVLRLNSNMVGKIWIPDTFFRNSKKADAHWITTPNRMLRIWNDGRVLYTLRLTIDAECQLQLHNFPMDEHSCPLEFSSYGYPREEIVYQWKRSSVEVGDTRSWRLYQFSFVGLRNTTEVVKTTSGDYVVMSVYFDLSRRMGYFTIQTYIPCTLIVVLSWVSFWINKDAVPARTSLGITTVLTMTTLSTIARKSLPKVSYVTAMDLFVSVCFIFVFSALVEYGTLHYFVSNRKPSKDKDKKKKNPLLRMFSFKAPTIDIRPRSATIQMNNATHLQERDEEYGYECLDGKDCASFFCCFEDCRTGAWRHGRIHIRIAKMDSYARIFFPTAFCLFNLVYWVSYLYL

As to `C[C@H](CCC(=O)O)[C@H]1CC[C@H]2[C@@H]3[C@@H](O)C[C@@H]4C[C@H](O)CC[C@]4(C)[C@H]3CC[C@]12C` [UDCA, ursodeoxycholic acid], the “access to the CNS” value in data set [1] was “reaches the CNS”. For the same compound, the sleep wake states entry with HDC+/+ mice (32 mg/kg orally at 10 a.m. (quiet period)) is on record as “did not affect”. Moreover, the waking entry with HDC+/+ mice (UDCA 32 mg/kg per os at 7 p.m. (active period), vs vehicle, n = 11) is listed as “significantly increased”. Moreover, in the data set on HDC+/+ mice (setting [3]), the “amount of paradoxical sleep (PS)” value was “decreased” and the “amount of slow wave sleep (SWS)” value is “decreased”. In data set [2] (IC50 of inhibition of GABA currents, maximal GABA, WT), the IC50 is 85 µM and 84.7 µM. In addition, the “relative amplitude of maximal GABA-responses” value in data set [2] (UDCA 100 µM, n = 7) is 47±3 % of control. For the same compound, the sleep wake states entry with HDC−/− mice (32 mg/kg orally at 10 a.m. (quiet period), n = 7) is “did not affect”. Moreover, in the data set on HDC−/− mice (setting [3]), the “slow wave sleep (SWS) and paradoxical sleep (PS)” value is “tended to be increased”; the total sleep result is reported as “increased”; the waking entry was “significantly decreased”.
